Reference: patent US8802721B2, “Thiophene compounds for inflammation and immune-related uses” (Synta Pharmaceuticals Corp., priority 2005, dated 2014)

Each compound was assayed on IL-2 production (assay: Inhibition of IL-2 production in PHA-activated Jurkat cells (ELISA)). Conditions: Homo sapiens, PHA 2.5 μg/mL, 20 hours.
Type: cell-based
Description: Jurkat cells were placed in a 96 well plate (0.5 million cells per well in 1% FBS medium) then a test compound of this invention was added at different concentrations. After 10 minutes, the cells were activated with PHA (final concentration 2.5 μg/mL) and incubated for 20 hours at 37° C. under CO2. The final volume was 200 μL. Following incubation, the cells were centrifuged and the supernatants collected and stored at −70° C. prior to assaying for IL-2 production. A commercial ELISA kit (IL-2 Eli-pair, Diaclone Research, Besancon, France) was used to detect production of IL-2, from which dose response curves were obtained.

SMILES	IC50
Cc1cnccc1NC(=O)c1ccc(-c2cc(C(F)(F)F)ccc2Cl)s1 [Compound 2, 5-(2-Chloro-5-trifluoromethyl-phenyl)-thiophene-2-carboxylic acid (3-methyl-pyridin-4-yl)-amide]	0.014 µM
COC(=O)c1ccc(C)c(-c2ccc(C(=O)Nc3c(F)cccc3F)s2)c1 [Compound 3, 3-[5-(2,6-Difluoro-phenylcarbamoyl)-thiophen-2-yl]-4-methyl-benzoic acid methyl ester]	0.0064 µM
COC(=O)c1ccc(C)c(-c2ccc(NC(=O)c3c(F)cccc3F)s2)c1 [Compound 118, 3-[5-(2,6-Difluoro-benzoylamino)-thiophen-2-yl]-4-methyl-benzoic acid methyl ester]	0.104 µM
COC(=O)c1cccc(-c2sc(NC(=O)c3c(F)cccc3F)cc2C)c1 [Compound 120, 3-[5-(2,6-Difluoro-benzoylamino)-3-methyl-thiophen-2-yl]-benzoic acid methyl ester]	0.087 µM
O=C(Nc1ccc(-c2cccc(-c3cnco3)c2)s1)c1c(F)cccc1F [Compound 121, 2,6-Difluoro-N-[5-(3-oxazol-5-yl-phenyl)-thiophen-2-yl]-benzamide]	0.164 µM
O=C(Nc1c(F)cccc1F)c1ccc(-c2cc(C(F)(F)F)ccc2Cl)s1 [Compound 1, 5-(2-Chloro-5-trifluoromethyl-phenyl)-thiophene-2-carboxylic acid (2,6-difluoro-phenyl)-amide]	0.003 µM
COC(=O)c1ccc(C)c(-c2ccc(C(=O)Nc3ccncc3C)s2)c1 [Compound 4, 4-Methyl-3-[5-(3-methyl-pyridin-4-ylcarbamoyl)-thiophen-2-yl]-benzoic acid methyl ester]	0.0585 µM
O=C(Nc1ccc(-c2cccc(C(F)(F)F)c2)s1)c1c(F)cccc1F [Compound 117, 2,6-Difluoro-N-[5-(3-trifluoromethyl-phenyl)-thiophen-2-yl]-benzamide]	0.0165 µM
Cc1ccc(-c2ncco2)cc1-c1ccc(NC(=O)c2c(F)cccc2F)s1 [Compound 119, 2,6-Difluoro-N-[5-(2-methyl-5-oxazol-2-yl-phenyl)-thiophen-2-yl]-benzamide]	0.0948 µM

What follows are compounds tested against ICRAC current in RBL cells (CRAC ion channel) (Rattus norvegicus, UniProt Q5M848) (assay: Patch clamp inhibition of ICRAC current in RBL cells). Conditions: whole-cell patch clamp, inward current at −80 mV, read-out: IC50 (concentration which inhibits 50% of the ICRAC current).
Type: cell-based
Description: In general, a whole cell patch clamp method is used to examine the effects of a compound of the invention on a channel that mediates Icrac. In such experiments, a baseline measurement is established for a patched cell. Then a compound to be tested is perfused (or puffed) to cells in the external solution and the effect of the compound on Icrac is measured. A compound that modulates Icrac (e.g., inhibits) is a compound that is useful in the invention for modulating CRAC ion channel activity.
Rat basophilic leukemia cells (RBL-2H3) were grown in DMEM media supplemented with 10% fetal bovine serum in an atmosphere of 95% air/5% CO2. Cells were seeded on glass coverslips 1-3 days before use.
Membrane currents of individual cells were recorded using the whole-cell configuration of the patch clamp technique with an EPC10 (HEKA Electronik, Lambrecht, Germany). Electrodes (2-5 MΩ in resistance) were fashioned from borosilicate glass capillary tubes (Sutter Instruments, Novato, Ca). […]
ICRAC currents were monitored every 2 seconds using a 50 msec protocol, where the voltage was ramped from −100 mV to +100 mV. […]
The ICRAC current level was determined by measuring the inward current amplitude at −80 mV of the voltage ramp in an off-line analysis using MATLAB. The ICRAC current inhibition for each concentration was calculated using peak amplitude in the beginning of the experiment from the same cell. […]

Chain of ICRAC current in RBL cells (CRAC ion channel) (Q5M848 whole entry, looked up): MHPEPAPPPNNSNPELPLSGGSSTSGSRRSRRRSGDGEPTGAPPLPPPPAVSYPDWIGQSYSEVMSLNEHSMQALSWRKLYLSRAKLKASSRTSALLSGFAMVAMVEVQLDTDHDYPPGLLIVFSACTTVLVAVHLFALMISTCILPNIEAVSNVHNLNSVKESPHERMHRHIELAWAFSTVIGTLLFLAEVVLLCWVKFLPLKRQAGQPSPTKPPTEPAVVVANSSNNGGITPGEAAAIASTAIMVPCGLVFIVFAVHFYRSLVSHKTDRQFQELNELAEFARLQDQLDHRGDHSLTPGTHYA

SMILES	IC50
COc1ccc(CCCOC(Cn2ccnc2)c2ccc(OC)cc2)cc1 (stereo not shown) [SKF96365]	4 µM
